Source: patent US11629171B2, “Beta-hairpin peptidomimetics” (POLYPHOR AG, priority 2017, dated 2023)
≈ marks a conversion by molar mass, not a printed value. Where a SMILES comes first, the peptide text is derived from it. Bridges are numbered along the chain shown (N, C = ends). Roman numbers before positions name the chains, in order. [ ]: non-standard residue; d: D form. Tle = CC(C)(C)[C@H](N)C(=O)O; NMeV = CN[C@H](C(=O)O)C(C)C; dDab = NCC[C@@H](N)C(=O)O; hSer = N[C@@H](CCO)C(=O)O; Orn = NCCC[C@H](N)C(=O)O; Dab = NCC[C@H](N)C(=O)O; Dap = NC[C@H](N)C(=O)O

How the values were obtained:
Type in all cases: cell-based
[1] = system: Klebsiella pneumoniae SSI #3010; conditions: SSI #3010
Description: (§1) The in vitro antimicrobial activities of the peptides were determined in 96-well plates (Greiner, polystyrene) by the standard CLSI broth microdilution method (Clinical and Laboratory Standards Institute 2014. Performance standards for antimicrobial susceptibility testing, 24th informational supplement. Approved standard CLSI M100-S24; Clinical and Laboratory Standards Institute, Wayne, Pa.). The following microorganisms were used to determine antibiotic activity of the peptides: Escherichia coli ATCC 25922, Klebsiella pneumoniae SSI #3010^a), Acinetobacter baumannii DSM 30008, Pseudomonas aeruginosa ATCC 27853 and the clinical isolates Escherichia coli 926415^b), Klebsiella pneumoniae 968733^b), Acinetobacter baumannii 872842^b), Enterobacter cloacae 848840^b) and Escherichia coli MCR-1 Af45^c). Before preparation of inocula, Escherichia coli MCR-1 Af45 was subcultured on Mueller-Hinton II (MH-cation adjusted) agar containing 2 μg/mL colistin. ^a) Obtained from Statens Serum Institut (SSI), Copenhagen, Denmark^b) Obtained from International Health Management Associates, Inc. (IHMA Europe Sàrl), Epalinges, Switzerland^c) Obtained from Prof. Patrice Nordmann, University of Fribourg, Fribourg, Switzerland
(§2) Inocula of the microorganisms were diluted into Mueller-Hinton II (MH-cation adjusted) broth and compared with a 0.5 McFarland standard to give appr. 10^6 colony forming units (CFU)/mL. Aliquots (90 μL) of inoculum were added to 10 μL of MH-II broth+P-80 (Polysorbate 80, 0.002% final concentration, v/v) containing the peptide in serial two-fold dilutions. Antimicrobial activities of the peptides were expressed as the minimal inhibitory concentration (MIC) in μg/mL at which no visible growth was observed after 18-20 hours of incubation at 35° C.

[2] = system: Escherichia coli ATCC 25922; conditions: ATCC 25922
Description: as §1, §2

[3] = system: Pseudomonas aeruginosa ATCC 27853; conditions: ATCC 27853
Description: as §1, §2

[4] = system: Acinetobacter baumannii DSM 30008; conditions: DSM 30008
Description: as §1, §2

[5] = system: human red blood cells (hRBC); test: Hemolysis; conditions: red cells of human, 1 h, 200
Description: The peptides were tested for their hemolytic activity against human red blood cells (hRBC). Fresh hRBC were washed four times with phosphate buffered saline (PBS) and centrifuged for 10 min at 3000×g. Compounds (200 μg/mL) were incubated with 20% hRBC (v/v) for 1 h at 37° C. and shaking at 300 rpm. A value of 0% and 100% cell lysis, respectively, was determined by incubation of hRBC in the presence of PBS containing 10% water and 2% Triton X-100 in H2O, respectively. The samples were centrifuged, the supernatants were ˜7.5-fold diluted in PBS buffer and the optical densities (OD) were measured at 540 nm and blank corrected. The 100% lysis value (OD540Triton X-100) gave an OD540 of approximately 0.5-1.0.
Percent hemolysis was calculated as follows: (OD540peptide/OD540Triton X-100)×100%.

| Compound | MIC [1] [µg/mL] | MIC [2] [µg/mL] | MIC [3] [µg/mL] | MIC [4] [µg/mL] | Hemolysis at 200 μg/mL [5] [%] |
| --- | --- | --- | --- | --- | --- |
| CC(=O)N[C@@H](CCN)C(=O)N[C@H](C(=O)N[C@@H](CN)C(=O)N[C@@H](Cc1ccc(O)cc1)C(=O)N[C@H]1CSSC[C@@H](C(=O)N[C@H](C(N)=O)C(C)(C)C)NC(=O)[C@H](Cc2c[nH]c3ccccc23)NC(=O)[C@H](CO)NC(=O)[C@@H](CCN)NC(=O)[C@H](CCC(=O)N[C@@H](CCN)C(=O)N[C@H](C(=O)N[C@@H](CN)C(=O)N[C@H]2CCNC(=O)[C@H]([C@@H](C)O)NC(=O)[C@H](CCN)NC(=O)[C@H](CCN)NC(=O)[C@H](CC(C)C)NC(=O)[C@@H](CC(C)C)NC(=O)[C@H](CCN)NC2=O)[C@@H](C)O)NC1=O)C(C)C [Ex. 13] (I: Ac-[Dab]V[Dap]YCE[dDab]SWC[Tle]-NH2 / II: [Dab]T[Dap][Dab][Dab][dL]L[Dab][Dab]T; disulfide I:5-I:10; amide I:6-II:N; lactam II:4-II:C) | 0.125 (≈ 0.0538 µM) | 0.125 (≈ 0.0538 µM) | 0.125 (≈ 0.0538 µM) | 0.125 (≈ 0.0538 µM) | <1 |
| CC(=O)N[C@@H](CCN)C(=O)N[C@H](C(=O)N[C@@H](CN)C(=O)N[C@@H](Cc1ccc(O)cc1)C(=O)N[C@H]1CSSC[C@@H](C(=O)N[C@H](C(N)=O)C(C)(C)C)NC(=O)[C@H](Cc2c[nH]c3ccccc23)NC(=O)[C@H](CCN)NC(=O)[C@@H](CCN)NC(=O)[C@H](CCC(=O)N[C@@H](CCN)C(=O)N[C@H](C(=O)N[C@@H](CN)C(=O)N[C@H]2CCNC(=O)[C@H]([C@@H](C)O)NC(=O)[C@H](CCN)NC(=O)[C@H](CCN)NC(=O)[C@H](CC(C)C)NC(=O)[C@@H](CC(C)C)NC(=O)[C@H](CCN)NC2=O)[C@@H](C)O)NC1=O)C(C)C [Ex. 14] (I: Ac-[Dab]V[Dap]YCE[dDab][Dab]WC[Tle]-NH2 / II: [Dab]T[Dap][Dab][Dab][dL]L[Dab][Dab]T; disulfide I:5-I:10; amide I:6-II:N; lactam II:4-II:C) | 0.5 (≈ 0.214 µM) | 0.25 (≈ 0.107 µM) | 0.25 (≈ 0.107 µM) | 0.5 (≈ 0.214 µM) | <1 |
| CC(=O)N[C@H](C(=O)N[C@H]1CCCNC(=O)[C@@H](CC(N)=O)NC(=O)[C@H](C(C)(C)C)NC(=O)[C@H](CO)NC(=O)[C@H](Cc2c[nH]c3ccccc23)NC(=O)[C@H](CCO)NC(=O)[C@@H](CCN)NC(=O)[C@H](CCC(=O)N[C@@H](CCN)C(=O)N[C@H](C(=O)N[C@@H](CN)C(=O)N[C@H]2CCNC(=O)[C@H]([C@@H](C)O)NC(=O)[C@H](CCN)NC(=O)[C@H](CCN)NC(=O)[C@H](CC(C)C)NC(=O)[C@@H](CC(C)C)NC(=O)[C@H](CCN)NC2=O)[C@@H](C)O)NC(=O)[C@H](CO)NC(=O)[C@H](Cc2ccc(O)cc2)NC1=O)C(C)C [Ex. 19] (I: Ac-V[Orn]YSE[dDab][hSer]WS[Tle][dN] / II: [Dab]T[Dap][Dab][Dab][dL]L[Dab][Dab]T; lactam I:2-I:C, II:4-II:C; amide I:5-II:N) | 0.125 (≈ 0.0536 µM) | 0.125 (≈ 0.0536 µM) | 0.25 (≈ 0.107 µM) | 0.125 (≈ 0.0536 µM) | <1 |
| CC(=O)N[C@H](C(=O)N[C@H]1CCCNC(=O)[C@@H](CCCCN)NC(=O)[C@H](C(C)(C)C)NC(=O)[C@H](CO)NC(=O)[C@H](Cc2c[nH]c3ccccc23)NC(=O)[C@H](CCO)NC(=O)[C@@H](CCN)NC(=O)[C@H](CCC(=O)N[C@@H](CCN)C(=O)N[C@H](C(=O)N[C@@H](CN)C(=O)N[C@H]2CCNC(=O)[C@H]([C@@H](C)O)NC(=O)[C@H](CCN)NC(=O)[C@H](CCN)NC(=O)[C@H](CC(C)C)NC(=O)[C@@H](CC(C)C)NC(=O)[C@H](CCN)NC2=O)[C@@H](C)O)NC(=O)[C@H](CO)NC(=O)[C@H](Cc2ccc(O)cc2)NC1=O)C(C)C [Ex. 30] (I: Ac-V[Orn]YSE[dDab][hSer]WS[Tle][dK] / II: [Dab]T[Dap][Dab][Dab][dL]L[Dab][Dab]T; lactam I:2-I:C, II:4-II:C; amide I:5-II:N) | 0.125 (≈ 0.0532 µM) | 0.0625 (≈ 0.0266 µM) | 0.25 (≈ 0.106 µM) | 0.125 (≈ 0.0532 µM) | <1 |
| CC(C)C[C@@H]1NC(=O)[C@@H](CC(C)C)NC(=O)[C@H](CCN)NC(=O)[C@@H](NC(=O)[C@H](CCN)NC(=O)[C@@H](NC(=O)[C@H](CCN)NC(=O)CC[C@@H]2NC(=O)[C@H](CCN)NC(=O)[C@H](Cc3ccc(O)cc3)NC(=O)[C@@H](NC(=O)[C@@H](N)C(C)C)CCC(=O)NCC[C@@H](C(=O)N[C@@H](CO)C(=O)O)NC(=O)[C@H](C(C)(C)C)NC(=O)[C@H](CO)NC(=O)[C@H](Cc3c[nH]c4ccccc34)NC(=O)[C@H]([C@@H](C)O)NC(=O)[C@@H](CCN)NC2=O)[C@@H](C)O)CCNC(=O)[C@H]([C@@H](C)O)NC(=O)[C@H](CCN)NC(=O)[C@H](CCN)NC1=O [Ex. 56] (I: H-VEY[Dab]E[dDab]TWS[Tle][Dab]S-OH / II: [Dab]T[Dab][Dab][Dab][dL]L[Dab][Dab]T; lactam I:2-I:11, II:4-II:C; amide I:5-II:N) | 1 (≈ 0.415 µM) | 0.5 (≈ 0.208 µM) | 0.5 (≈ 0.208 µM) | 1 (≈ 0.415 µM) | <1 |
| CN[C@H](C(=O)N[C@@H](CN)C(=O)N[C@@H](Cc1ccc(O)cc1)C(=O)N[C@H]1CSSC[C@@H](C(=O)N[C@H](C(=O)N[C@@H](C)C(=O)N[C@@H](CO)C(N)=O)C(C)(C)C)NC(=O)[C@H](Cc2c[nH]c3ccccc23)NC(=O)[C@H]([C@@H](C)O)NC(=O)[C@@H](CCN)NC(=O)[C@H](CCC(=O)N[C@@H](CCN)C(=O)N[C@H](C(=O)N[C@@H](CCN)C(=O)N[C@H]2CCNC(=O)[C@H]([C@@H](C)O)NC(=O)[C@H](CCN)NC(=O)[C@H](CCN)NC(=O)[C@H](CC(C)C)NC(=O)[C@@H](CC(C)C)NC(=O)[C@H](CCN)NC2=O)[C@@H](C)O)NC1=O)C(C)C [Ex. 180] (I: H-[NMeV][Dap]YCE[dDab]TWC[Tle]AS-NH2 / II: [Dab]T[Dab][Dab][Dab][dL]L[Dab][Dab]T; disulfide I:4-I:9; amide I:5-II:N; lactam II:4-II:C) | 0.5 (≈ 0.21 µM) | 0.125 (≈ 0.0525 µM) | 0.125 (≈ 0.0525 µM) | 0.25 (≈ 0.105 µM) | <1 |
| CN[C@H](C(=O)N[C@H](C(=O)N[C@@H](Cc1ccc(O)cc1)C(=O)N[C@H]1CSSC[C@@H](C(=O)N[C@H](C(=O)N[C@@H](C)C(=O)N[C@@H](CO)C(N)=O)C(C)C)NC(=O)[C@H](Cc2c[nH]c3ccccc23)NC(=O)[C@H](CCO)NC(=O)[C@@H](CCN)NC(=O)[C@H](CCC(=O)N[C@@H](CCN)C(=O)N[C@H](C(=O)N[C@@H](CCN)C(=O)N[C@H]2CCNC(=O)[C@H]([C@@H](C)O)NC(=O)[C@H](CCN)NC(=O)[C@H](CCN)NC(=O)[C@H](CC(C)C)NC(=O)[C@@H](CC(C)C)NC(=O)[C@H](CCN)NC2=O)[C@@H](C)O)NC1=O)[C@@H](C)O)C(C)C [Ex. 183] (I: H-[NMeV]TYCE[dDab][hSer]WCVAS-NH2 / II: [Dab]T[Dab][Dab][Dab][dL]L[Dab][Dab]T; disulfide I:4-I:9; amide I:5-II:N; lactam II:4-II:C) | 0.25 (≈ 0.105 µM) | 0.125 (≈ 0.0524 µM) | 0.125 (≈ 0.0524 µM) | 0.25 (≈ 0.105 µM) | <1 |
| CC(=O)N[C@H](C(=O)N[C@H](C(=O)N[C@@H](Cc1ccc(O)cc1)C(=O)N[C@H]1CC(=O)NCC[C@@H](C(=O)N[C@H](C(=O)N[C@@H](C)C(=O)N[C@@H](CO)C(N)=O)C(C)C)NC(=O)[C@H](Cc2c[nH]c3ccccc23)NC(=O)[C@H](CCO)NC(=O)[C@@H](CCN)NC(=O)[C@H](CCC(=O)N[C@@H](CCN)C(=O)N[C@H](C(=O)N[C@@H](CCN)C(=O)N[C@H]2CCNC(=O)[C@H]([C@@H](C)O)NC(=O)[C@H](CCN)NC(=O)[C@H](CCN)NC(=O)[C@H](CC(C)C)NC(=O)[C@@H](CC(C)C)NC(=O)[C@H](CCN)NC2=O)[C@@H](C)O)NC1=O)[C@@H](C)O)C(C)C [Ex. 187] (I: Ac-VTYDE[dDab][hSer]W[Dab]VAS-NH2 / II: [Dab]T[Dab][Dab][Dab][dL]L[Dab][Dab]T; lactam I:4-I:9, II:4-II:C; amide I:5-II:N) | 0.25 (≈ 0.104 µM) | 0.125 (≈ 0.052 µM) | 0.5 (≈ 0.208 µM) | 0.5 (≈ 0.208 µM) | <1 |
